Laboratory results taken from patent US11090293B2 (Ovid Therapeutics Inc., priority 2018, dated 2021).
Read-outs that look alike come from different tables or passages of the source.

What was measured:
[1] = human, in vivo, po
[2] = human, in vivo

SMILES	residual effect on Choice Reaction Time and Critical Flicker Fusion [1]	CLR ([2]; both, iv, 10 mg)	half-life (t½) ([2]; both, po)	CLR ([2]; both, po, 2.5 mg)	AUC0-∞ ([2]; both, po, 5 mg)	CLR ([2]; both, po, 5 mg)	AUC0-∞ ([2]; both, po, 10 mg)	AUC0-∞ ([2]; both, po, 15 mg)	CLR ([2]; both, po, 15 mg)	AUC0-∞ ([2]; both, po, 20 mg)	CLR ([2]; both, po, 20 mg)	CL/F (CL for 10 mg IV) ([2]; iv, 10 mg)	Slope (90% CI) of AUC0-∞, dose proportionality assessment ([2]; po)
CCN(CC)CCN1C(=O)CN=C(c2ccccc2F)c2cc(Cl)ccc21 [Flurazepam]	showed significant effect												
Oc1noc2c1CCNC2 [gaboxadol, 4,5,6,7-tetrahydroisoxazolo [5,4-c]pyridine-3-ol]	did not show residual effect	208 mL/min	1.5 h	196 mL/min	0.171 µg·h/mL	222 mL/min	0.346 µg·h/mL	0.539 µg·h/mL	234 mL/min	0.669 µg·h/mL	265 mL/min	438 mL/min	0.98 (0.95, 1.01)
